{"source": "ChEMBL document CHEMBL1201862", "about": "“PubChem BioAssay data set” (2004)", "assay_in_all_cases": "NCI tumour cell line growth inhibition, 48 h", "key": {"LOX IMVI": {"tested_on": "LOX IMVI"}, "IGROV-1": {"tested_on": "IGROV-1"}, "SF-268": {"tested_on": "SF-268"}, "UACC-257": {"tested_on": "UACC-257"}, "SK-OV-3": {"tested_on": "SK-OV-3"}, "786-0": {"tested_on": "786-0"}, "K562": {"tested_on": "K562"}, "M14": {"tested_on": "M14"}, "NCI-H522": {"tested_on": "NCI-H522"}, "DMS-114": {"tested_on": "DMS-114"}, "RXF 393": {"tested_on": "RXF 393"}, "U-251": {"tested_on": "U-251"}, "SK-MEL-2": {"tested_on": "SK-MEL-2"}, "MOLT-4": {"tested_on": "MOLT-4"}, "HCC 2998": {"tested_on": "HCC 2998"}, "TK-10": {"tested_on": "TK-10"}, "PC-3": {"tested_on": "PC-3"}, "NCI/ADR-RES": {"tested_on": "NCI/ADR-RES"}, "MDA-MB-231": {"tested_on": "MDA-MB-231"}}, "note": "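Step 1: Grow cells in 96-well plates. Step 2: Expose to compound for 48 hours at 5 concentrations. Step 3: Interpolate endpoints linearly; if unreached, use highest concentration. GI50 marks 50% less growth.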 Activity calls are given as the source filed them. Cut-off read from the data, not from the text of the source: active = GI50 up to about 1.1 µM and inactive = higher.", "data": [{"compound": "O=c1nc(N2CCCC2)nc(N2CCCC2)s1", "values": [{"measurement": "GI50", "setting": "LOX IMVI", "value": "> 100 µM (inactive)"}, {"measurement": "GI50", "setting": "IGROV-1", "value": "> 100 µM (inactive)"}, {"measurement": "GI50", "setting": "SF-268", "value": "> 100 µM (inactive)"}, {"measurement": "GI50", "setting": "UACC-257", "value": "> 100 µM (inactive)"}, {"measurement": "GI50", "setting": "SK-OV-3", "value": "> 100 µM (inactive)"}, {"measurement": "GI50", "setting": "786-0", "value": "> 100 µM (inactive)"}, {"measurement": "GI50", "setting": "K562", "value": "> 100 µM (inactive)"}, {"measurement": "GI50", "setting": "M14", "value": "> 100 µM (inactive)"}, {"measurement": "GI50", "setting": "NCI-H522", "value": "> 100 µM (inactive)"}, {"measurement": "GI50", "setting": "DMS-114", "value": "> 100 µM (inactive)"}, {"measurement": "GI50", "setting": "RXF 393", "value": "> 100 µM (inactive)"}, {"measurement": "GI50", "setting": "U-251", "value": "> 100 µM (inactive)"}, {"measurement": "GI50", "setting": "SK-MEL-2", "value": "> 100 µM (inactive)"}, {"measurement": "GI50", "setting": "MOLT-4", "value": "> 100 µM (inactive)"}, {"measurement": "GI50", "setting": "HCC 2998", "value": "> 100 µM (inactive)"}, {"measurement": "GI50", "setting": "TK-10", "value": "> 100 µM (inactive)"}]}, {"compound": "Cc1c2ccncc2c(C)c2c1[nH]c1ccc(OC(C)C)cc12", "values": [{"measurement": "GI50", "setting": "LOX IMVI", "value": "1.18 µM (inactive)"}, {"measurement": "GI50", "setting": "IGROV-1", "value": "1.43 µM (inactive)"}, {"measurement": "GI50", "setting": "SF-268", "value": "1.43 µM (inactive)"}, {"measurement": "GI50", "setting": "UACC-257", "value": "1.82 µM (inactive)"}, {"measurement": "GI50", "setting": "SK-OV-3", "value": "1.42 µM (inactive)"}, {"measurement": "GI50", "setting": "786-0", "value": "1.19 µM (inactive)"}, {"measurement": "GI50", "setting": "K562", "value": "1.13 µM (inactive)"}, {"measurement": "GI50", "setting": "M14", "value": "1.6 µM (inactive)"}, {"measurement": "GI50", "setting": "NCI-H522", "value": "1.63 µM (inactive)"}, {"measurement": "GI50", "setting": "DMS-114", "value": "1.49 µM (inactive)"}, {"measurement": "GI50", "setting": "RXF 393", "value": "1.33 µM (inactive)"}, {"measurement": "GI50", "setting": "U-251", "value": "1.38 µM (inactive)"}, {"measurement": "GI50", "setting": "SK-MEL-2", "value": "1.58 µM (inactive)"}, {"measurement": "GI50", "setting": "MOLT-4", "value": "0.59 µM (active)"}, {"measurement": "GI50", "setting": "HCC 2998", "value": "2.03 µM (inactive)"}, {"measurement": "GI50", "setting": "TK-10", "value": "1.91 µM (inactive)"}]}, {"compound": "Cn1cnc(S[C@H]2[C@H]3C(=O)C=C4S[C@H]5C[C@]42C2=C(N5)C(=O)c4[nH]cc5c4C2=[N+]3CC5)c1C[C@H](N)C(=O)O", "values": [{"measurement": "GI50", "setting": "LOX IMVI", "value": "13.1 µM (inactive)"}, {"measurement": "GI50", "setting": "IGROV-1", "value": "16.4 µM (inactive)"}, {"measurement": "GI50", "setting": "SF-268", "value": "12.1 µM (inactive)"}, {"measurement": "GI50", "setting": "UACC-257", "value": "16.1 µM (inactive)"}, {"measurement": "GI50", "setting": "SK-OV-3", "value": "21.4 µM (inactive)"}, {"measurement": "GI50", "setting": "786-0", "value": "19 µM (inactive)"}, {"measurement": "GI50", "setting": "K562", "value": "17.3 µM (inactive)"}, {"measurement": "GI50", "setting": "M14", "value": "15.4 µM (inactive)"}, {"measurement": "GI50", "setting": "NCI-H522", "value": "4.58 µM (inactive)"}, {"measurement": "GI50", "setting": "DMS-114", "value": "2.52 µM (inactive)"}, {"measurement": "GI50", "setting": "RXF 393", "value": "22.1 µM (inactive)"}, {"measurement": "GI50", "setting": "U-251", "value": "17.2 µM (inactive)"}, {"measurement": "GI50", "setting": "SK-MEL-2", "value": "13.7 µM (inactive)"}, {"measurement": "GI50", "setting": "MOLT-4", "value": "12.7 µM (inactive)"}, {"measurement": "GI50", "setting": "HCC 2998", "value": "16.2 µM (inactive)"}, {"measurement": "GI50", "setting": "TK-10", "value": "38.3 µM (inactive)"}]}, {"compound": "COc1ccc(/C=C\\c2cc(OC)c(OC)c(OC)c2)cc1OCC(=O)O", "values": [{"measurement": "GI50", "setting": "LOX IMVI", "value": "12.2 µM (inactive)"}, {"measurement": "GI50", "setting": "IGROV-1", "value": "46.8 µM (inactive)"}, {"measurement": "GI50", "setting": "SF-268", "value": "10.9 µM (inactive)"}, {"measurement": "GI50", "setting": "PC-3", "value": "5.5 µM (inactive)"}, {"measurement": "GI50", "setting": "UACC-257", "value": "5.61 µM (inactive)"}, {"measurement": "GI50", "setting": "SK-OV-3", "value": "29 µM (inactive)"}, {"measurement": "GI50", "setting": "NCI/ADR-RES", "value": "2.21 µM (inactive)"}, {"measurement": "GI50", "setting": "MDA-MB-231", "value": "18 µM (inactive)"}, {"measurement": "GI50", "setting": "786-0", "value": "37.6 µM (inactive)"}, {"measurement": "GI50", "setting": "K562", "value": "3.68 µM (inactive)"}, {"measurement": "GI50", "setting": "M14", "value": "3.79 µM (inactive)"}, {"measurement": "GI50", "setting": "NCI-H522", "value": "3.36 µM (inactive)"}, {"measurement": "GI50", "setting": "DMS-114", "value": "4.16 µM (inactive)"}, {"measurement": "GI50", "setting": "RXF 393", "value": "6.15 µM (inactive)"}, {"measurement": "GI50", "setting": "U-251", "value": "5.96 µM (inactive)"}, {"measurement": "GI50", "setting": "SK-MEL-2", "value": "6.68 µM (inactive)"}, {"measurement": "GI50", "setting": "MOLT-4", "value": "6.41 µM (inactive)"}, {"measurement": "GI50", "setting": "HCC 2998", "value": "88.9 µM (inactive)"}, {"measurement": "GI50", "setting": "TK-10", "value": "> 97.3 µM (inactive)"}]}, {"compound": "O=C(N/N=C/c1ccccc1O)c1cccc([N+](=O)[O-])c1", "values": [{"measurement": "GI50", "setting": "LOX IMVI", "value": "18.4 µM (inactive)"}, {"measurement": "GI50", "setting": "IGROV-1", "value": "13.7 µM (inactive)"}, {"measurement": "GI50", "setting": "SF-268", "value": "15.7 µM (inactive)"}, {"measurement": "GI50", "setting": "UACC-257", "value": "9.48 µM (inactive)"}, {"measurement": "GI50", "setting": "SK-OV-3", "value": "15 µM (inactive)"}, {"measurement": "GI50", "setting": "786-0", "value": "6.47 µM (inactive)"}, {"measurement": "GI50", "setting": "K562", "value": "22.4 µM (inactive)"}, {"measurement": "GI50", "setting": "M14", "value": "14.7 µM (inactive)"}, {"measurement": "GI50", "setting": "NCI-H522", "value": "32.7 µM (inactive)"}, {"measurement": "GI50", "setting": "DMS-114", "value": "3.65 µM (inactive)"}, {"measurement": "GI50", "setting": "RXF 393", "value": "8.95 µM (inactive)"}, {"measurement": "GI50", "setting": "U-251", "value": "26.2 µM (inactive)"}, {"measurement": "GI50", "setting": "SK-MEL-2", "value": "21.8 µM (inactive)"}, {"measurement": "GI50", "setting": "MOLT-4", "value": "3.1 µM (inactive)"}, {"measurement": "GI50", "setting": "HCC 2998", "value": "30.5 µM (inactive)"}, {"measurement": "GI50", "setting": "TK-10", "value": "30.9 µM (inactive)"}]}, {"compound": "COC(=O)CCC(=O)CC1CC(=O)C2CCCN12", "note": "(centres undefined)", "values": [{"measurement": "GI50", "setting": "LOX IMVI", "value": "> 100 µM (inactive)"}, {"measurement": "GI50", "setting": "IGROV-1", "value": "> 100 µM (inactive)"}, {"measurement": "GI50", "setting": "SF-268", "value": "> 100 µM (inactive)"}, {"measurement": "GI50", "setting": "UACC-257", "value": "> 100 µM (inactive)"}, {"measurement": "GI50", "setting": "SK-OV-3", "value": "> 100 µM (inactive)"}, {"measurement": "GI50", "setting": "786-0", "value": "> 100 µM (inactive)"}, {"measurement": "GI50", "setting": "K562", "value": "> 100 µM (inactive)"}, {"measurement": "GI50", "setting": "M14", "value": "> 100 µM (inactive)"}, {"measurement": "GI50", "setting": "NCI-H522", "value": "> 100 µM (inactive)"}, {"measurement": "GI50", "setting": "DMS-114", "value": "> 100 µM (inactive)"}, {"measurement": "GI50", "setting": "RXF 393", "value": "> 100 µM (inactive)"}, {"measurement": "GI50", "setting": "U-251", "value": "> 100 µM (inactive)"}, {"measurement": "GI50", "setting": "SK-MEL-2", "value": "> 100 µM (inactive)"}, {"measurement": "GI50", "setting": "MOLT-4", "value": "> 100 µM (inactive)"}, {"measurement": "GI50", "setting": "HCC 2998", "value": "> 100 µM (inactive)"}, {"measurement": "GI50", "setting": "TK-10", "value": "> 100 µM (inactive)"}]}]}
